Results from PubChem BioAssay (NCI).
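Dose response: 5 concentrations. Exposure: 48 h. Format: 96-well plates. Endpoint: linear interpolation; highest concentration if not reached. GI50 = concentration required for 50% inhibition of growth. TGI marks complete inhibition of growth.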

How the values were obtained:
Experiment in all cases: DTP human tumour cell line panel, 48 h
A498 renal = tested on: A498 renal
A549 NSCLC = tested on: A549 NSCLC
CCRF-CEM leukemia = tested on: CCRF-CEM leukemia
COLO 205 colon = tested on: COLO 205 colon
HL-60(TB) leukemia = tested on: HL-60(TB) leukemia
HS 578T breast = tested on: HS 578T breast
HT29 colon = tested on: HT29 colon
K-562 leukemia = tested on: K-562 leukemia
MCF7 breast = tested on: MCF7 breast
OVCAR-4 ovarian = tested on: OVCAR-4 ovarian
OVCAR-8 ovarian = tested on: OVCAR-8 ovarian
RPMI-8226 leukemia = tested on: RPMI-8226 leukemia
RXF 393 renal = tested on: RXF 393 renal
SK-MEL-2 melanoma = tested on: SK-MEL-2 melanoma
SK-OV-3 ovarian = tested on: SK-OV-3 ovarian
SNB-75 CNS = tested on: SNB-75 CNS
SR leukemia = tested on: SR leukemia
786-0 renal = tested on: 786-0 renal
ACHN renal = tested on: ACHN renal
BT-549 breast = tested on: BT-549 breast
DU-145 prostate = tested on: DU-145 prostate
EKVX NSCLC = tested on: EKVX NSCLC
HCC-2998 colon = tested on: HCC-2998 colon
HCT-116 colon = tested on: HCT-116 colon
HCT-15 colon = tested on: HCT-15 colon
HOP-62 NSCLC = tested on: HOP-62 NSCLC
HOP-92 NSCLC = tested on: HOP-92 NSCLC
IGROV1 ovarian = tested on: IGROV1 ovarian
KM12 colon = tested on: KM12 colon
LOX IMVI melanoma = tested on: LOX IMVI melanoma
M14 melanoma = tested on: M14 melanoma
MALME-3M melanoma = tested on: MALME-3M melanoma
MDA-MB-435 = tested on: MDA-MB-435
MOLT-4 leukemia = tested on: MOLT-4 leukemia
NCI-H226 lung = tested on: NCI-H226 lung
NCI-H23 lung = tested on: NCI-H23 lung
NCI-H460 lung = tested on: NCI-H460 lung
NCI-H522 lung = tested on: NCI-H522 lung
NCI/ADR-RES ovarian = tested on: NCI/ADR-RES ovarian
OVCAR-3 ovarian = tested on: OVCAR-3 ovarian
OVCAR-5 ovarian = tested on: OVCAR-5 ovarian
PC-3 prostate = tested on: PC-3 prostate
SF-268 CNS = tested on: SF-268 CNS
SF-295 CNS = tested on: SF-295 CNS
SF-539 CNS = tested on: SF-539 CNS
SK-MEL-28 melanoma = tested on: SK-MEL-28 melanoma
SK-MEL-5 melanoma = tested on: SK-MEL-5 melanoma
SN12C renal = tested on: SN12C renal
SNB-19 CNS = tested on: SNB-19 CNS
SW-620 colon = tested on: SW-620 colon
T-47D breast = tested on: T-47D breast
U251 CNS = tested on: U251 CNS
UACC-257 melanoma = tested on: UACC-257 melanoma
UACC-62 melanoma = tested on: UACC-62 melanoma
UO-31 renal = tested on: UO-31 renal

C[C@H](c1ccc(Cl)cc1[N+](=O)[O-])N1C(=O)c2cc(I)ccc2N=C(OCCCN2CCN(C)CC2)[C@@H]1c1ccc(Cl)cc1
GI50 (A498 renal): 2080 nM | TGI (A498 renal): 5420 nM | GI50 (A549 NSCLC): 1570 nM | TGI (A549 NSCLC): 3140 nM | GI50 (CCRF-CEM leukemia): 2180 nM | TGI (CCRF-CEM leukemia): 5410 nM | GI50 (COLO 205 colon): 1690 nM | TGI (COLO 205 colon): 3270 nM | GI50 (HL-60(TB) leukemia): 2440 nM | TGI (HL-60(TB) leukemia): 4410 nM | GI50 (HS 578T breast): 2020 nM | TGI (HS 578T breast): 6470 nM | GI50 (HT29 colon): 1910 nM | TGI (HT29 colon): 3490 nM | GI50 (K-562 leukemia): 1810 nM | TGI (K-562 leukemia): 4030 nM | GI50 (MCF7 breast): 1640 nM | TGI (MCF7 breast): 3260 nM | GI50 (OVCAR-4 ovarian): 1600 nM | TGI (OVCAR-4 ovarian): 3150 nM | GI50 (OVCAR-8 ovarian): 1610 nM | TGI (OVCAR-8 ovarian): 3400 nM | GI50 (RPMI-8226 leukemia): 2330 nM | TGI (RPMI-8226 leukemia): 6500 nM | GI50 (RXF 393 renal): 1730 nM | TGI (RXF 393 renal): 3250 nM | GI50 (SK-MEL-2 melanoma): 2110 nM | TGI (SK-MEL-2 melanoma): 4050 nM | GI50 (SK-OV-3 ovarian): 1790 nM | TGI (SK-OV-3 ovarian): 3240 nM | GI50 (SNB-75 CNS): 1710 nM | TGI (SNB-75 CNS): 4270 nM | GI50 (SR leukemia): 1650 nM | TGI (SR leukemia): 3880 nM

Cc1ccc(/C=C/c2c(C(=O)/C=C/c3ccccc3)c(C)nc3ccccc23)cc1
GI50 (786-0 renal): 1630 nM | TGI (786-0 renal): 3050 nM | GI50 (A498 renal): 1750 nM | TGI (A498 renal): 3230 nM | GI50 (A549 NSCLC): 2040 nM | TGI (A549 NSCLC): 5600 nM | GI50 (ACHN renal): 1590 nM | TGI (ACHN renal): 2930 nM | GI50 (BT-549 breast): 1750 nM | TGI (BT-549 breast): 4360 nM | GI50 (CCRF-CEM leukemia): 1690 nM | TGI (CCRF-CEM leukemia): > 100000 nM | GI50 (COLO 205 colon): 1600 nM | TGI (COLO 205 colon): 3670 nM | GI50 (DU-145 prostate): 1650 nM | TGI (DU-145 prostate): 3150 nM | GI50 (EKVX NSCLC): 1850 nM | TGI (EKVX NSCLC): 3580 nM | GI50 (HCC-2998 colon): 1710 nM | TGI (HCC-2998 colon): 3350 nM | GI50 (HCT-116 colon): 762 nM | TGI (HCT-116 colon): 2200 nM | GI50 (HCT-15 colon): 1320 nM | TGI (HCT-15 colon): 3240 nM | GI50 (HL-60(TB) leukemia): 2040 nM | TGI (HL-60(TB) leukemia): 4890 nM | GI50 (HOP-62 NSCLC): 1740 nM | TGI (HOP-62 NSCLC): 3490 nM | GI50 (HOP-92 NSCLC): 1520 nM | TGI (HOP-92 NSCLC): 4340 nM | GI50 (HT29 colon): 1630 nM | TGI (HT29 colon): 9500 nM | GI50 (IGROV1 ovarian): 1410 nM | TGI (IGROV1 ovarian): 4480 nM | GI50 (K-562 leukemia): 1730 nM | TGI (K-562 leukemia): 5380 nM | GI50 (KM12 colon): 1720 nM | TGI (KM12 colon): 3360 nM | GI50 (LOX IMVI melanoma): 1640 nM | TGI (LOX IMVI melanoma): 3000 nM | GI50 (M14 melanoma): 1870 nM | TGI (M14 melanoma): 4520 nM | GI50 (MALME-3M melanoma): 1740 nM | TGI (MALME-3M melanoma): 3180 nM | GI50 (MDA-MB-435): 2100 nM | TGI (MDA-MB-435): 5590 nM | GI50 (MOLT-4 leukemia): 708 nM | TGI (MOLT-4 leukemia): 4290 nM | GI50 (NCI-H226 lung): 1690 nM | TGI (NCI-H226 lung): 3460 nM | GI50 (NCI-H23 lung): 1640 nM | TGI (NCI-H23 lung): 3780 nM | GI50 (NCI-H460 lung): 1370 nM | TGI (NCI-H460 lung): 2990 nM | GI50 (NCI-H522 lung): 1400 nM | TGI (NCI-H522 lung): 3290 nM | GI50 (NCI/ADR-RES ovarian): 2240 nM | TGI (NCI/ADR-RES ovarian): 5850 nM | GI50 (OVCAR-3 ovarian): 1510 nM | TGI (OVCAR-3 ovarian): 2880 nM | GI50 (OVCAR-4 ovarian): 2190 nM | TGI (OVCAR-4 ovarian): 7720 nM | GI50 (OVCAR-5 ovarian): 1900 nM | TGI (OVCAR-5 ovarian): 3530 nM | GI50 (OVCAR-8 ovarian): 1830 nM | TGI (OVCAR-8 ovarian): 5460 nM | GI50 (PC-3 prostate): 1840 nM | TGI (PC-3 prostate): 5050 nM | GI50 (RPMI-8226 leukemia): 1540 nM | TGI (RPMI-8226 leukemia): 5130 nM | GI50 (RXF 393 renal): 1530 nM | TGI (RXF 393 renal): 2880 nM | GI50 (SF-268 CNS): 2060 nM | TGI (SF-268 CNS): 5420 nM | GI50 (SF-295 CNS): 2200 nM | TGI (SF-295 CNS): 5020 nM | GI50 (SF-539 CNS): 1740 nM | TGI (SF-539 CNS): 3190 nM | GI50 (SK-MEL-28 melanoma): 1770 nM | TGI (SK-MEL-28 melanoma): 3270 nM | GI50 (SK-MEL-5 melanoma): 1710 nM | TGI (SK-MEL-5 melanoma): 3110 nM | GI50 (SN12C renal): 1870 nM | TGI (SN12C renal): 3850 nM | GI50 (SNB-19 CNS): 1660 nM | TGI (SNB-19 CNS): 3080 nM | GI50 (SR leukemia): 1180 nM | TGI (SR leukemia): 5670 nM | GI50 (SW-620 colon): 1580 nM | TGI (SW-620 colon): 4610 nM | GI50 (T-47D breast): 1280 nM | TGI (T-47D breast): 4320 nM | GI50 (U251 CNS): 1500 nM | TGI (U251 CNS): 2870 nM | GI50 (UACC-257 melanoma): 1860 nM | TGI (UACC-257 melanoma): 4020 nM | GI50 (UACC-62 melanoma): 1580 nM | TGI (UACC-62 melanoma): 3160 nM | GI50 (UO-31 renal): 1260 nM | TGI (UO-31 renal): 2520 nM
